According to patent publication US20160304957A1, “TREATMENT AND MODULATION OF GENE EXPRESSION AND SKIN AGING” (DSM NUTRITIONAL PRODUCTS LTD., priority 2006, published 2016):

System: HaCaT human keratinocytes
Test: Affymetrix GeneChip microarray, transcriptional response to β-carotene and/or UVA
Format: cell-based
Settings: β-carotene 1.5 μM
Description: The cell culture experiments were carried out as described. Briefly, a subclone of passage 65 HaCaT keratinocytes, selected for differentiation capacity, was used at passages 16 to 23 after subcloning. 2×10^5 cells were seeded per 60 millimeter dish. Starting the following day, the cells were pretreated for 2 days with β-carotene at 1.5 μM, a typical concentration in human plasma after moderate dietary supplementation)
β-carotene-containing medium was prepared as follows. Fresh all-E-β-carotene (DSM Nutritional Products, Kaiseraugst, Switzerland) stock solution in THF (containing 0.025% BHT; Fluka Chemie A G, Switzerland) was diluted 1:2 with ethanol and added to cell culture medium to a final concentration of 1.5 μM β-carotene. The solvent concentration in the medium was 0.5% for all treatments. β-carotene-containing medium was prepared fresh for the daily medium changes.
On day 3 of the experiment, the cells were irradiated with a Hönle sun lamp Sol 500 (270 kJ/m^2; Dr. Hönle, Germany).
Five independent, factorially designed cell irradiation experiments were analyzed by microarray hybridization. For each experiment, one chip was hybridized per treatment condition. GeneChip® analysis was done as described in [132], which is incorporated by reference, as if recited in full herein. Gene regulation by β-carotene and/or UVA was calculated relative to placebo.
Changes in gene expression were included in further analysis only if the change factor was […], and if unpaired t-tests yielded p values≦0.05. Upregulations by a […] are labeled bold, downregulations by a change factor of […] are labeled bold italics. (Table 1) To identify the pathways affected by the treatments functional information on the genes was retrieved from public literature databases.

## CC1=C(/C=C/C(C)=C/C=C/C(C)=C/C=C/C=C(C)/C=C/C=C(C)/C=C/C2=C(C)CCCC2(C)C)C(C)(C)CCC1 [β-carotene, All-E-β-carotene]
5 hours after UVA, UVA alone 4.6 fold
  UVA induction of MMP-10, microarray: 3.2 fold
unirradiated
  5-aminolevulinate synthase (Y00451) change factor: 0.08
  AAC11 (U83857) change factor: −0.6
  AP-2α (M36711) change factor: −0.02
  ATF4; activating transcription factor 4 (AL022312) change factor: 0.11
  BAXγ (L22475) change factor: 0.8
  BAXδ (U19599) change factor: 0.6
  BMP2a; bone morphogenetic protein 2a (bmp-2a) (M22489) change factor: −1.2
  BPAG1; bullous pemphigoid antigen (M69225) change factor: −0.5
  BUB1; mitotic checkpoint kinase (AF053305) change factor: −0.5
  C-FOS (V01512) change factor: −0.14
  C-FOS (V01512, second entry) change factor: −0.16
  C-JUN (J04111) change factor: −0.06
  C/EBPβ; NF-IL6 (X52560) change factor: −0.28
  C/EBPγ (U20240) change factor: −0.09
  C/EBPδ; NF-IL6-β (M83667) change factor: 0.04
  CDK activating kinase (X77743) change factor: −0.01
  CDK-inhibitor p57KIP2 (KIP2) mrna (U22398) change factor: −0.22
  CENP-A; centromere protein-A (U14518) change factor: −0.13
  CENP-E; centromere protein-E (Z15005) change factor: −0.37
  CENP-F; mitosin (U30872) change factor: −0.42
  CEP110; centriole associated protein (AF083322) change factor: 0.15
  CIP2; CDKN3 (L25876) change factor: −0.18
  CLARP; CFLAR, alternatively spliced (AF005775) change factor: −0.09
  COUP-TF II; ARP1; apoA1 regulatory protein (M64497) change factor: 0.33
  COX-2, cyclooxygenase-2 (U04636) change factor: −1.2
  CRADD; death domain containing protein (U84388) change factor: −0.25
  DKK-1; dickkopf-1 (AB020315) change factor: −0.3
  DNA ligase III (X84740) change factor: −0.5
  DNA polymerase α-subunit (X06745) change factor: −0.43
  DNA primase (subunit p58) (X74331) change factor: −0.16
  DNA-PK, catalytic subunit (U47077) change factor: −0.7
  DSC2; desmocollin type 2a and 2b (X56807) change factor: −1.1
  DUSP5 (U15932) change factor: −0.15
  DUSP7 (X93921) change factor: −0.46
  EGFR; precursor of epidermal growth factor receptor (X00588) change factor: −0.6
  ENDOGL-2 (AB020735) change factor: 0.8
  ERBB3 precursor; similar to (H06628) change factor: 0
  ERCC5; excision repair protein (L20046) change factor: −0.48
  ERF-2 (X78992) change factor: 0.31
  FGFR2; FGF receptor 2 (M87770) change factor: 0.08
  FGFR3; FGF receptor (M64347) change factor: −1.1
  FRA-1 (X16707) change factor: 0.14
  FRA-2 (X16706) change factor: −0.7
  GADD34 (U83981) change factor: −0.11
  GADD153 (S62138) change factor: −0.45
  GDF-1; growth/differentiation factor 1 (gdf-1) (M62302) change factor: −0.8
  GEM (U10550) change factor: −2.6
  HB-EGF; heparin-binding egf-like growth factor (M60278) change factor: 0.33
  HER3; epidermal growth factor receptor (her3) (M34309) change factor: −0.28
  HER3; epidermal growth factor receptor (her3) (M34309, second entry) change factor: −0.6
  HM74; PAR1-related (D10923) change factor: 0.18
  HOXA7 (AJj005814) change factor: −0.43
  HOXC6 (S82986) change factor: −0.07
  HOXD4 (X59373) change factor: −0.5
  ID1 (X77956) change factor: −0.01
  ID1 (X77956, second entry) change factor: −0.11
  ID3; HEIR1 (AL021154) change factor: −0.43
  ID-2H (D13891) change factor: −0.7
  ID-4 (AL022726) change factor: −0.08
  IEX-1 (S81914) change factor: −0.08
  IFIT1; IFI56 (M24594) change factor: 0
  IFIT1; IFI56 (M24594, second entry) change factor: 0.05
  IFIT2; ISG-54K (M14660) change factor: 0.18
  IFIT2; ISG-54K (M14660, second entry) change factor: −0.21
  IFIT4; IFI60; cig5; RIGG (AF026941) change factor: −0.23
  IGF-BP 3; insulin-like growth factor-binding protein-3 gene (M35878) change factor: 0.29
  IGF-BP 3; insulin-like growth factor-binding protein-3 gene (M35878, second entry) change factor: 0.22
  IL6; Interleukin 6; IFNβα2a (X04430) change factor: 0.6
  IL18; IGIF (IFNγ inducing factor) (D49950) change factor: −0.8
  ILK; integrin-linked kinase (U40282) change factor: −0.23
  IRF-1; interferon regulatory factor 1 (L05072) change factor: 0.16
  IRF-7b; interferon regulatory factor 7b (U53831) change factor: 0.16
  IRF-9; p48; ISGF3γ (M97935) change factor: −0.18
  JUNB (M29039) change factor: −0.38
  JUNB (X51345) change factor: −0.5
  JUND (X56681) change factor: 0.6
  JUND (X56681, second entry) change factor: 0.01
  JUND (X56681, third entry) change factor: 0
  K-RAS (M54968) change factor: −0.6
  KINESIN-LIKE 2; HSET (AL021366) change factor: −0.34
  KINESIN-LIKE 2; HSET (D14678) change factor: −0.04
  KINESIN-LIKE 2; HSET (D14678, second entry) change factor: 0.03
  KINESIN-LIKE 5; KNSL5; MKLP-1; mitotic kinesin-like protein-1 (X67155) change factor: −0.15
  KINESIN-LIKE 6; KNSL6; MCAK; mitotic centromere-associated kinesin (U63743) change factor: −0.15
  KINESIN_LIKE 1; KNSL1; HKSP; EG5 (U37426) change factor: −0.04
  KLF4; EZF (epithelial Zn finger) (U70663) change factor: −0.17
  KRS-2; stress responsive serine/threonine protein kinase (U60207) change factor: −0.8
  KU (p70/p80) (M30938) change factor: −0.18
  LIM kinase 2 (limk-2) (D45906) change factor: −0.3
  Lekti (AJ228139) change factor: 0.48
  MAD3L; mitotic checkpoint kinase (AF053306) change factor: −0.18
  MAF-F (AL021977) change factor: −0.26
  MAP kinase phosphatase (mkp-2) (U48807) change factor: 0
  MAPK9; JNK2 (U09759) change factor: −0.36
  MAPK14; p38; csaids binding protein (csbp1) (L35263) change factor: −0.38
  MAPKK3b; MKK3b (D87116) change factor: −0.06
  MAPKK MEK5b (U71087) change factor: −0.16
  MAPKKK5; ASK1 (U67156) change factor: −0.06
  MEIS2 (AF017418) change factor: 0.26
  MMP10 (X07820) change factor: −1.3
  MMP-1 (M13509) change factor: −1.61
  MMP-3 (X05232) change factor: −0.46
